Reference: patent publication US6737383B1, “Herbicidal oxadiazolidines” (priority 1999, dated 2004)

What was measured:
[1] = test system: purple nutsedge; assay: Test B pre/postemergence purple nutsedge; type: in vivo, Cyperus rotundus
In short: (§1)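 Test chemicals in a non-phytotoxic solvent mixture with surfactant were sprayed preemergence onto planted seeds and postemergence onto plants 2 to 18 cm tall (1- to 4-leaf stage). After twelve to sixteen days in a greenhouse, injury was visually rated against untreated controls from 0 (no effect) to 10 (complete control).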

[2] = test system: morningglory; assay: Test B pre/postemergence morningglory; type: in vivo, Ipomoea hederacea
In short: as §1

[3] = test system: bamyardgrass; assay: Test B flood test barnyardgrass; type: in vivo, Echinochloa crus-galli
In short: (§2)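 Read-out is a visual response score from 0 (no effect) to 10 (complete control), assigned by comparison with untreated controls. Treatment was applied at the 2-leaf stage, and plants stayed in the greenhouse for twelve to sixteen days before scoring.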

[4] = test system: blackgrass; assay: Test B pre/postemergence blackgrass; type: in vivo, Alopecurus myosuroides
In short: as §1

[5] = test system: surinam grass; assay: Test B pre/postemergence surinam grass; type: in vivo, Brachiaria decumbens
In short: as §1

[6] = test system: giant foxtail; assay: Test B pre/postemergence giant foxtail; type: in vivo, Setaria faberii
In short: as §1

[7] = test system: crabgrass; assay: Test B pre/postemergence crabgrass; type: in vivo, Digitaria sanguinalis
In short: as §1

[8] = test system: corn; assay: Test B pre/postemergence corn; type: in vivo, Zea mays
In short: as §1

[9] = test system: pigweed; assay: Test B pre/postemergence pigweed; type: in vivo, Amaranthus retroflexus
In short: as §1

[10] = test system: cocklebur; assay: Test B pre/postemergence cocklebur; type: in vivo, Xanthium strumarium
In short: as §1

[11] = test system: rape; assay: Test B pre/postemergence rape; type: in vivo, Brassica napus
In short: as §1

[12] = test system: wheat; assay: Test B pre/postemergence wheat; type: in vivo, Triticum aestivum
In short: as §1

[13] = test system: sugar beet; assay: Test B pre/postemergence sugar beet; type: in vivo, Beta vulgaris
In short: as §1

[14] = test system: bedstraw; assay: Test B pre/postemergence bedstraw; type: in vivo, Galium aparine; settings: Preemergence
In short: as §1

[15] = test system: wild oat; assay: Test B pre/postemergence wild oat; type: in vivo, Avena fatua
In short: as §1

[16] = test system: rice; assay: Test B flood test rice; type: in vivo, Oryza sativa
In short: as §2

[17] = Postemergence, Rate 250 g/ha, scale 0 to 10, 0 is no effect, 10 is complete control
[18] = Postemergence, Rate 500 g/ha, scale of 0 to 10 where 0 is no effect and 10 is complete control
[19] = Preemergence, Rate 62 g/ha, scale 0 to 10 (0 no effect, 10 complete control)
[20] = Preemergence, Rate 125 g/ha, scale of 0 to 10 where 0 is no effect and 10 is complete control
[21] = Preemergence, Rate 250 g/ha, scale 0 to 10, 0 is no effect, 10 is complete control
[22] = Preemergence, Rate 500 g/ha, scale 0 to 10, 0 is no effect, 10 is complete control
[23] = Rate 62 g/ha, flood test species, Pre-emergence, visual evaluation after twelve to sixteen days
[24] = Rate 125 g/ha, under heading Pre-emergence, flood test species, visual evaluation after twelve to sixteen days
[25] = Rate 250 g/ha, Pre-emergence, flood-test species, scale 0 to 10, 0 is no effect, 10 is complete control
[26] = Rate 500 g/ha, Pre-emergence, flood test species, scale 0 to 10 (0 no effect, 10 complete control)
[27] = Postemergence, Rate 125 g/ha, scale 0 to 10, 0 is no effect, 10 is complete control
[28] = Preemergence, Rate 250 g/ha, scale of 0 to 10 where 0 is no effect and 10 is complete control
[29] = Rate 62 g/ha, Postemergence, scale of 0 to 10 where 0 is no effect and 10 is complete control

Q: With Cc1nc(Cl)sc1C(C)n1c(=O)on(C(=O)N(c2ccccc2)C(C)C)c1=O (stereo not drawn) [Compound 407] as the compound, how does the “Plant response rating, Nutsedge” value [1, 17] read?
A: 0

Q: And the “Nutsedge plant response rating” value [1, 18]?
A: 0

Q: What about the “Plant response rating, Nutsedge” value [1, 19] of the same compound?
A: 0

Q: What about the “Plant response rating, Nutsedge” value [1, 20] of the same compound?
A: 0

Q: And the “Nutsedge plant response rating” value [1, 21]?
A: 0

Q: What about the “Nutsedge plant response rating” value [1, 22] of the same compound?
A: 0

Q: What about the “Plant response rating, Morningglory” value [2, 17] of the same compound?
A: 10

Q: And the “Morningglory plant response rating” value [2, 18]?
A: 10

Q: What about the “Plant response rating, Morningglory” value [2, 19] of the same compound?
A: 0

Q: What about the “Plant response rating, Morningglory” value [2, 20] of the same compound?
A: 0

Q: What about the “Morningglory plant response rating” value [2, 21] of the same compound?
A: 0

Q: What about the “Morningglory plant response rating” value [2, 22] of the same compound?
A: 0

Q: And the “Plant response rating, Barnyardgrass (0 to 10 scale, 0 is no effect, 10 is complete control)” value [3, 23]?
A: 0

Q: What about the “Barnyardgrass plant response rating (0 to 10 scale, 0 is no effect, 10 is complete control)” value [3, 24] of the same compound?
A: 0

Q: What about the “Barnyardgrass plant response rating” value [3, 25] of the same compound?
A: 0

Q: What about the “Barnyardgrass plant response rating” value [3, 26] of the same compound?
A: 0

Q: What about the “Plant response rating, Blackgrass” value [4, 27] of the same compound?
A: 0

Q: And the “Plant response rating, Blackgrass” value [4, 17]?
A: 0

Q: And the “Blackgrass plant response rating” value [4, 18]?
A: 7

Q: And the “Plant response rating, Blackgrass” value [4, 19]?
A: 0

Q: And the “Plant response rating, Blackgrass” value [4, 20]?
A: 0

Q: And the “Blackgrass plant response rating” value [4, 28]?
A: 0

Q: And the “Blackgrass plant response rating” value [4, 22]?
A: 0

Q: What about the “Blackgrass plant response rating” value [4, 29] of the same compound?
A: 0

Q: And the “Plant response rating, B. signalgrass” value [5, 27]?
A: 0

Q: What about the “Plant response rating, B. signalgrass” value [5, 17] of the same compound?
A: 0

Q: What about the “B. signalgrass plant response rating” value [5, 18] of the same compound?
A: 0

Q: What about the “Plant response rating, B. signalgrass” value [5, 19] of the same compound?
A: 0

Q: And the “Plant response rating, B. signalgrass” value [5, 20]?
A: 0

Q: And the “B. signalgrass plant response rating” value [5, 28]?
A: 0

Q: What about the “B. signalgrass plant response rating” value ([5]; Preemergence, Rate 500 g/ha, scale of 0 to 10 where 0 is no effect and 10 is complete control) of the same compound?
A: 0

Q: What about the “B. signalgrass plant response rating” value [5, 29] of the same compound?
A: 0

Q: And the “Plant response rating, Giant foxtail” value [6, 27]?
A: 0

Q: And the “Plant response rating, Giant foxtail” value [6, 17]?
A: 3

Q: And the “Giant foxtail plant response rating” value [6, 18]?
A: 8

Q: And the “Plant response rating, Giant foxtail” value [6, 19]?
A: 0

Q: And the “Plant response rating, Giant foxtail” value [6, 20]?
A: 6

Q: And the “Giant foxtail plant response rating” value [6, 21]?
A: 9

Q: And the “Giant foxtail plant response rating” value [6, 22]?
A: 10

Q: What about the “Giant foxtail plant response rating” value [6, 29] of the same compound?
A: 0

Q: And the “Plant response rating, Crabgrass” value [7, 27]?
A: 0

Q: What about the “Plant response rating, Crabgrass” value [7, 17] of the same compound?
A: 1

Q: And the “Crabgrass plant response rating” value [7, 18]?
A: 3

Q: And the “Plant response rating, Crabgrass” value [7, 19]?
A: 0

Q: What about the “Plant response rating, Crabgrass” value [7, 20] of the same compound?
A: 2

Q: What about the “Crabgrass plant response rating” value [7, 21] of the same compound?
A: 5

Q: And the “Crabgrass plant response rating” value [7, 22]?
A: 9

Q: What about the “Crabgrass plant response rating” value [7, 29] of the same compound?
A: 0

Q: And the “Plant response rating, Corn” value [8, 27]?
A: 0

Q: And the “Plant response rating, Corn” value [8, 17]?
A: 0

Q: And the “Corn plant response rating” value [8, 18]?
A: 0

Q: And the “Plant response rating, Corn” value [8, 19]?
A: 0

Q: What about the “Plant response rating, Corn” value [8, 20] of the same compound?
A: 0

Q: What about the “Corn plant response rating” value [8, 21] of the same compound?
A: 0

Q: What about the “Corn plant response rating” value [8, 22] of the same compound?
A: 0

Q: What about the “Corn plant response rating” value [8, 29] of the same compound?
A: 0

Q: And the “Plant response rating, Redroot pigweed” value [9, 17]?
A: 0

Q: What about the “Redroot pigweed plant response rating” value [9, 18] of the same compound?
A: 0

Q: And the “Plant response rating, Redroot pigweed” value [9, 19]?
A: 0

Q: And the “Plant response rating, Redroot pigweed” value [9, 20]?
A: 0

Q: What about the “Redroot pigweed plant response rating” value [9, 21] of the same compound?
A: 0

Q: And the “Redroot pigweed plant response rating” value [9, 22]?
A: 0

Q: And the “Plant response rating, Cocklebur” value [10, 27]?
A: 0

Q: And the “Plant response rating, Cocklebur” value [10, 17]?
A: 0

Q: What about the “Cocklebur plant response rating” value [10, 18] of the same compound?
A: 0

Q: And the “Plant response rating, Cocklebur” value [10, 19]?
A: 0

Q: And the “Plant response rating, Cocklebur” value [10, 20]?
A: 0

Q: And the “Cocklebur plant response rating” value [10, 21]?
A: 0

Q: What about the “Cocklebur plant response rating” value [10, 22] of the same compound?
A: 0

Q: And the “Cocklebur plant response rating” value [10, 29]?
A: 0

Q: And the “Plant response rating, Rape” value [11, 17]?
A: 0

Q: And the “Plant response rating, Rape” value [11, 19]?
A: 0

Q: What about the “Plant response rating, Rape” value [11, 20] of the same compound?
A: 0

Q: And the “Rape plant response rating” value [11, 21]?
A: 0

Q: What about the “Rape plant response rating” value [11, 22] of the same compound?
A: 0

Q: And the “Wheat plant response rating” value [12, 18]?
A: 0

Q: And the “Plant response rating, Wheat” value [12, 19]?
A: 0

Q: What about the “Plant response rating, Wheat” value [12, 20] of the same compound?
A: 0

Q: What about the “Wheat plant response rating” value [12, 21] of the same compound?
A: 0

Q: And the “Wheat plant response rating” value [12, 22]?
A: 0

Q: And the “Plant response rating, Sugarbeets” value [13, 17]?
A: 0

Q: And the “Sugarbeets plant response rating” value [13, 18]?
A: 0

Q: What about the “Plant response rating, Sugarbeets” value [13, 19] of the same compound?
A: 0

Q: What about the “Plant response rating, Sugarbeets” value [13, 20] of the same compound?
A: 0

Q: What about the “Sugarbeets plant response rating” value [13, 21] of the same compound?
A: 0

Q: What about the “Sugarbeets plant response rating” value [13, 22] of the same compound?
A: 0

Q: What about the “Plant response rating, Bedstraw” value ([14]; Rate 62 g/ha, scale 0 to 10 (0 no effect, 10 complete control)) of the same compound?
A: 0

Q: What about the “Plant response rating, Bedstraw” value ([14]; Rate 125 g/ha, scale of 0 to 10 where 0 is no effect and 10 is complete control) of the same compound?
A: 0

Q: And the “Bedstraw plant response rating” value ([14]; Rate 250 g/ha, scale of 0 to 10 where 0 is no effect and 10 is complete control)?
A: 0

Q: And the “Bedstraw plant response rating” value ([14]; Rate 500 g/ha, scale 0 to 10, 0 is no effect, 10 is complete control)?
A: 0

Q: What about the “Wild oats plant response rating” value [15, 18] of the same compound?
A: 0

Q: What about the “Plant response rating, Wild oats” value [15, 19] of the same compound?
A: 0

Q: What about the “Plant response rating, Wild oats” value [15, 20] of the same compound?
A: 0

Q: What about the “Wild oats plant response rating” value [15, 21] of the same compound?
A: 0

Q: What about the “Wild oats plant response rating” value [15, 22] of the same compound?
A: 0

Q: And the “Plant response rating, Rice (0 to 10 scale, 0 is no effect, 10 is complete control)” value [16, 23]?
A: 0

Q: And the “Rice plant response rating (0 to 10 scale, 0 is no effect, 10 is complete control)” value [16, 24]?
A: 0

Q: What about the “Rice plant response rating” value [16, 25] of the same compound?
A: 0

Q: What about the “Rice plant response rating” value [16, 26] of the same compound?
A: 0
